Measurements as given in patent US9855270B2, “Methods and compositions for modulating estrogen receptor mutants” (priority 2014, dated 2018).
Like-named read-outs stand apart in the source and are kept apart here.

Experiments:
wild-type ER-α = molecular target: T1, wild-type ER-α (Homo sapiens, UniProt P03372)
T1 sequence (P03372 1-595): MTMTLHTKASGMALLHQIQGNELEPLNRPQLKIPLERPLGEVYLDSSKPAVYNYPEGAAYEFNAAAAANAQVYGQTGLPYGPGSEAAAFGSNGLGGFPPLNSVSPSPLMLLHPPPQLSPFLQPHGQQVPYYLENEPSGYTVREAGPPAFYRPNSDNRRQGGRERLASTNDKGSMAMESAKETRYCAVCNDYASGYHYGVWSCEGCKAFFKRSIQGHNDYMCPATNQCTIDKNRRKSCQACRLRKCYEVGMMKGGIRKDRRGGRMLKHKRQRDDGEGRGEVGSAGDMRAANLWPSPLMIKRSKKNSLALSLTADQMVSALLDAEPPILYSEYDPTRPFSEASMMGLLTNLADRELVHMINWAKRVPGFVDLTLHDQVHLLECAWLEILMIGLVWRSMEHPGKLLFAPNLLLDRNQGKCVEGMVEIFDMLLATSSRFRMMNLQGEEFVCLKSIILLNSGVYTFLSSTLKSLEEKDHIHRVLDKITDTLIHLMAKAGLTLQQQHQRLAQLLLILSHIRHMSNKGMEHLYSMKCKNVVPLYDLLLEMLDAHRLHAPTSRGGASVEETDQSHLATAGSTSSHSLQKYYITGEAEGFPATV

[1] = tested on: MCF-7 cells stably expressing UbC HA-ER-α E380Q; experiment: cells; type: cell-based; details: UbC HA-ER-α E380Q; for EC50: Homo sapiens, MCF7, read-out: Potency (EC50; nM); for Percent inhibition compared to vehicle: 5-Day Incubation; for Efficacy (Emax): Day 5 relative to Day 0
Procedure, shortened: (§1)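 Lentivirally transduced MCF-7 (HA-ER-α WT/mutant under EF1 or UbC; empty vector control); phenol-free RPMI + 10% CSS; 10-pt 1:5 dilution, 10 μM–5 pM final; 5 d; CellTiter-Glo; (RLU − background)/RLU T0.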

[2] = tested on: MCF-7 cells stably expressing UbC HA-ER-α L536R; experiment: cells; type: cell-based; details: UbC HA-ER-α L536R; for EC50: Homo sapiens, MCF7, read-out: Potency (EC50; nM); for Percent inhibition compared to vehicle: 5-Day Incubation; for Efficacy (Emax): Day 5 relative to Day 0
Procedure, shortened: (§2)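 CellTiter-Glo read-out: background-subtracted RLU divided by day-0 RLU gives fold proliferation. Cells were MCF-7 transduced with HA-ER-α lentivirus (EF1 high or UbC low-moderate promoter) or empty vector, dosed 10 μM–5 pM for 5 days in phenol-free RPMI/10% CSS.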

[3] = tested on: MCF-7 cells stably expressing UbC HA-ER-α Y537N; experiment: cells; type: cell-based; details: UbC HA-ER-α Y537N; for EC50: Homo sapiens, MCF7, read-out: Potency (EC50; nM); for Percent inhibition compared to vehicle: 5-Day Incubation; for Efficacy (Emax): Day 5 relative to Day 0
Procedure, shortened: as §2

[4] = tested on: MCF-7 cells stably expressing EF1 HA-ER-α L536R; experiment: cells; type: cell-based; details: EF1 HA-ER-α L536R; for Percent inhibition compared to vehicle: 5-Day Incubation; for Efficacy (Emax): Day 5 relative to Day 0; for EC50: Homo sapiens, MCF7, read-out: Potency (EC50; nM)
Procedure, shortened: as §1

[5] = tested on: MCF-7 cells stably expressing EF1 HA-ER-α E380Q; experiment: cells; type: cell-based; details: EF1 HA-ER-α E380Q; for Percent inhibition compared to vehicle: 5-Day Incubation; for Efficacy (Emax): Day 5 relative to Day 0; for EC50: Homo sapiens, MCF7, read-out: Potency (EC50; nM)
Procedure, shortened: as §2

[6] = Agonist Mode, −E2, relative to vehicle treated wild-type ER-α
[7] = Antagonist Mode, +E2, relative to vehicle treated wild-type ER-α
[8] = Antagonist Mode, −E2 (Table 27)

Structure (SMILES)	Efficacy (Emax) (wild-type ER-α; [6])	Efficacy (Emax) (wild-type ER-α; [7])	EC50 ([1]; Agonist Mode, −E2) [nM]	EC50 ([1]; Antagonist Mode, +E2) [nM]	Percent inhibition compared to vehicle ([1]; Agonist Mode, −E2) [%]	Efficacy (Emax) ([1]; Agonist Mode, −E2)	Percent inhibition compared to vehicle ([1]; Antagonist Mode, +E2) [%]	Efficacy (Emax) ([1]; Antagonist Mode, +E2)	EC50 ([2]; Agonist Mode, −E2) [nM]	EC50 ([2]; Antagonist Mode, +E2) [nM]	Percent inhibition compared to vehicle ([2]; Agonist Mode, −E2) [%]	Efficacy (Emax) ([2]; Agonist Mode, −E2)	Percent inhibition compared to vehicle ([2]; Antagonist Mode, +E2) [%]	Efficacy (Emax) ([2]; Antagonist Mode, +E2)	EC50 ([3]; Agonist Mode, −E2) [nM]	EC50 ([3]; Antagonist Mode, +E2) [nM]	Percent inhibition compared to vehicle ([3]; Agonist Mode, −E2) [%]	Efficacy (Emax) ([3]; Agonist Mode, −E2)	Percent inhibition compared to vehicle ([3]; Antagonist Mode, +E2) [%]	Efficacy (Emax) ([3]; Antagonist Mode, +E2)	further results
CC1=C(c2cccc(O)c2)[C@H](c2ccc(OCCN3CC(CF)C3)cc2)Oc2ccc(O)cc21 [Compound 4-23, (S)-2-(4-(2-(3-(fluoromethyl)azetidin-1-yl)ethoxy)phenyl)-3-(3-hydroxyphenyl)-4-methyl-2H-chromen-6-ol]	0.14 ± 0.10	0.08 ± 0.07	0.208 ± 0.141	1.02 ± 0.163	58	1.78 ± 0.28	77	1.61 ± 0.34	0.334 ± 0.27	2.58 ± 0.181	53	1.80 ± 0.26	71	1.73 ± 0.31	0.446 ± 0.219	2.64 ± 1.86	62	1.63 ± 0.17	74	1.70 ± 0.03	Percent inhibition compared to vehicle (wild-type ER-α; Agonist Mode, −E2): 86%; Percent inhibition compared to vehicle (wild-type ER-α; Antagonist Mode, +E2): 96%; Percent inhibition compared to vehicle ([4]; Agonist Mode, −E2): 57%; Efficacy (Emax) ([4]; Agonist Mode, −E2): 2.94 ± 0.34; Percent inhibition compared to vehicle ([4]; Antagonist Mode, +E2): 60%; Efficacy (Emax) ([4]; Antagonist Mode, +E2): 2.76 ± 0.50; EC50 ([4]; Antagonist Mode, +E2): 53.3 ± 65.8 nM; EC50 [4, 8]: 11.3 ± 9.22 nM; Percent inhibition compared to vehicle ([5]; Agonist Mode, −E2): 63%; Efficacy (Emax) ([5]; Agonist Mode, −E2): 2.43 ± 0.02; Percent inhibition compared to vehicle ([5]; Antagonist Mode, +E2): 62%; Efficacy (Emax) ([5]; Antagonist Mode, +E2): 2.39 ± 0.24; EC50 ([5]; Antagonist Mode, +E2): 14 ± 15.4 nM; EC50 [5, 8]: 3.76 ± 3.11 nM
C[C@]12CC[C@@H]3c4ccc(O)cc4C[C@@H](CCCCCCCCC[S+]([O-])CCCC(F)(F)C(F)(F)F)[C@H]3[C@@H]1CC[C@@H]2O (some centres unmarked) [Fulvestrant]	0.15 ± 0.09	0.06 ± 0.08	0.248 ± 0.094	1.14 ± 0.028	60	1.70 ± 0.30	76	1.70 ± 0.32	0.257 ± 0.09	2.3 ± 1.81	55	1.71 ± 0.22	71	1.71 ± 0.16	0.355 ± 0.163	1.77 ± 0.387	63	1.61 ± 0.15	77	1.49 ± 0.00	Percent inhibition compared to vehicle ([4]; Agonist Mode, −E2): 42%; Efficacy (Emax) ([4]; Agonist Mode, −E2): 3.95 ± 0.36; Percent inhibition compared to vehicle ([4]; Antagonist Mode, +E2): 48%; Efficacy (Emax) ([4]; Antagonist Mode, +E2): 3.53 ± 0.28; EC50 ([4]; Agonist Mode, −E2): 6.29 ± 1.13 nM; EC50 ([4]; Antagonist Mode, +E2): 35 ± 2.77 nM; EC50 [4, 8]: 6.29 ± 1.13 nM; Percent inhibition compared to vehicle ([5]; Agonist Mode, −E2): 62%; Efficacy (Emax) ([5]; Agonist Mode, −E2): 2.50 ± 0.03; Percent inhibition compared to vehicle ([5]; Antagonist Mode, +E2): 65%; Efficacy (Emax) ([5]; Antagonist Mode, +E2): 2.21 ± 0.12; EC50 ([5]; Agonist Mode, −E2): 4.36 ± 3.23 nM; EC50 ([5]; Antagonist Mode, +E2): 10.3 ± 2.62 nM; EC50 [5, 8]: 4.36 ± 3.23 nM
